Measured values as given in ChEMBL document CHEMBL1157539, “Thousands of chemical starting points for antimalarial lead identification” (Nature, 2010).

System: Plasmodium falciparum
Experiment: GSK_TCMDC: Inhibition of Plasmodium falciparum 3D7 in whole erythrocytes, using parasite LDH activity as an index of growth.
Assay type: functional, organism-based
Conditions: Plasmodium falciparum, 3D7

Compound | XC50 [nM]
COc1cc2s/c(=N\C(=O)c3cccc([N+](=O)[O-])c3)n(C)c2cc1OC | 722
Cc1cc(N/N=C/c2ccccc2[N+](=O)[O-])c2cccc(C)c2n1 | 548
CCN(CC)CCN(Cc1ccc(-c2ccc(C#N)cc2)cc1)C(=O)Cn1c(CCc2cccc(F)c2F)nc(=O)c2ccccc21 | 5.97
CC(=O)Nc1cccc(C(=O)Nc2ccc(-c3cccc(-c4nc5cc(C(F)(F)F)ccc5[nH]4)c3)cc2)c1 | 148
O=C(Nc1cccc(C(F)(F)F)c1)c1cccc(S(=O)(=O)NCC2CCCN2CC2CCCCC2)c1 (stereo not given) | 1110
Cc1c(CN2CCCCC2)cccc1OCCCNc1nc(NCCc2ccc(O)cc2)nc(N2CCNCC2)n1 | 223
Cc1nnc2c(NC(=O)/C=C/c3ccc(OC(F)(F)F)cc3)cc3cc(Cl)ccc3n12 | 170
CCOc1cc(C=Cc2nc(O)c3ccccc3n2)cc(Cl)c1O | 1180
O=C(Nc1cc(C(F)(F)F)cc(C(F)(F)F)c1)N1CCC(CN2CCC(c3c[nH]c4ccccc34)CC2)CC1 | 187
Brc1cccc(Nc2nccc(Nc3ccc(Oc4ccccc4)cc3)n2)c1 | 1010
CCCc1cn2c3c(cc(C(=O)N[C@@H](Cc4ccccc4)[C@H](O)CNC4CCCCC4)cc13)N(CC)S(=O)(=O)CC2 | 80.6
COc1cc(NCCCNC(=O)c2ccc(Cl)c(Cl)c2)nc2ccccc12 | 137
Cc1[nH]c(C)c(-c2ccc(OCc3ccc(F)cc3)cc2)c(=O)c1Br | 77.2
CCOc1ccc(OCCCON2C(=N)N=C(N)NC2(C)C)cc1 | 3.2
CSc1nc2nc(C)c(Cc3cccc(C(F)(F)F)c3)c(C)n2n1 | 193
CCC(C)(C)c1ccc(OCCCC(=O)Nc2ccc(Cl)c([N+](=O)[O-])c2)c(C(C)(C)CC)c1 | 969
O=C(NC1CCC(CN2CCC(c3c[nH]c4ccccc34)CC2)CC1)c1[nH]c(=O)[nH]c(=O)c1F (stereo not given) | 796
CC(=O)NC1=NC(C)(C)N(OCc2ccc(Cl)c(Cl)c2)C(NC(C)=O)=N1 | 3.2
COc1nc2c(CCN3CCC(NCc4ccc5c(c4)NCCO5)CC3)c(Cl)cnc2cc1F | 179
O=C(NCCCCCN1CCC(c2c[nH]c3ccccc23)CC1)Nc1ccc(I)c(Cl)c1 | 969
Cc1ccccc1N1CCN(c2ccc(C(=O)NC(C)C)cn2)CC1 | 901
CN1CCN(CCCN(Cc2cccc(-c3cccc(CNCc4ccc5c(c4)OCO5)c3)c2)C(=O)CCC2CCCC2)CC1 | 952
O=C(Nc1ccc(Cl)c(C(F)(F)F)c1)c1ccc(Cl)c([N+](=O)[O-])c1 | 1120
CCOC(=O)[C@H](Cc1cc([N+](=O)[O-])c(Oc2ccc(OC)c(Cc3ccc(OC)c(C(C)C)c3)c2)c([N+](=O)[O-])c1)NC(=O)C(F)(F)F | 984

Compound | XC50 [nM]
COc1ccc(CNCc2ccc(F)cc2)cc1-c1ccc(S(=O)(=O)NCCN2CCCC2)s1 | 706
Cc1cccc2nc(-c3ccc(-c4cccc(CN5CCCC5CN)c4)s3)[nH]c12 (stereo not given) | 867
COc1cc2nc(NCCc3ccccc3)nc(NCCCc3ccccc3)c2cc1OC | 158
CN(CC(=O)Nc1cc(C(F)(F)F)ccc1-n1cncn1)Cc1nc2ccccc2s1 | 1410
Cc1cccc2nc(-c3ccc(-c4ccc(CNCC5CCCO5)cc4)cc3)[nH]c12 (stereo not given) | 678
COc1ccc(CN(C)CCOc2ccc(NC(=O)c3cccc4c(=O)cc(-c5ccccc5)[nH]c34)cc2)cc1OC | 921
CNCCNCc1cccc(-c2ccc(-c3nc4ccccc4[nH]3)cc2)c1 | 743
CC[C@H](NC(=O)c1c(CN2CCC(N3CCCCC3)CC2)c(-c2ccccc2)nc2c(Cl)c(O)ccc12)c1ccccc1 | 734
Oc1cc(Nc2ccnc3cc(I)ccc23)ccc1F | 740
CCOC(=O)c1ccc(NC(=O)Nc2ccc(-c3ccc(-c4nc5cc(C(F)(F)F)ccc5[nH]4)cc3)cc2)cc1 | 273
N#Cc1cccc(C(=O)NC2CCN(CCCCCNC(=O)/C=C/c3ccc(Cl)c(Cl)c3)CC2)c1 | 876
OCC(c1ccccc1)n1c(COc2ccc(Cl)cc2)nc2c(OCCCN3CCCCC3)cccc21 (stereo not given) | 916
Cc1cc(N)c2cc(NC(=O)CCC(=O)Nc3ccc4nc(C)cc(N)c4c3)ccc2n1 | 954
COc1ccc(C(=O)NC(c2ccc(Cl)cc2Cl)c2cc(Cl)c3cccnc3c2O)cc1 (stereo not given) | 499
CCCCCNC(=N)N/N=C/c1c[nH]c2ccc(OC)cc12 | 955
CCOc1ccccc1C1C(C(=O)C(C)(C)C)N2c3ccc(Br)cc3C=CC2C12C(=O)c1ccccc1C2=O (stereo not given) | 853
CC(CN(C)C)C(=O)Nc1cccc(-c2ccc(-c3nc4ccccc4[nH]3)s2)c1 (stereo not given) | 743
NCC1CCCN1Cc1ccc(-c2ccc(-c3nc4cc(F)ccc4[nH]3)cc2)cc1 (stereo not given) | 926
Cc1ccc(-n2c(Cc3cccc4ccccc34)nnc2SCCC#N)c(C)c1 | 465
CCc1ccc(C(=O)Nc2cccc(CN3CCCN(Cc4ccc(O)cc4)CC3)c2)cc1 | 1030
CC(=O)Nc1cccc(CNCc2ccc(-c3cnc(N4CCCC(c5ccccc5)C4)nc3)cc2)c1 (stereo not given) | 1190
Cc1cc(OCCCN2CCC(NS(=O)(=O)c3cc(Br)c(Cl)s3)CC2)c2ccccc2n1 | 851
CC(C)(CNC(=O)C1CCN(Cc2ccc(Cl)cc2)CC1)c1nc(-c2ccc(Cl)c(O)c2)c(-c2ccncc2)[nH]1 | 623
Cc1ccccc1C1CCN(c2ccc(C(=O)Nc3ccc(F)cc3)cn2)CC1 | 194

Compound | XC50 [nM]
CCc1ccc(CN2CCC(CNC(=O)c3cc(-c4cccc(Cl)c4)cs3)C2)cc1 (stereo not given) | 1110
CCc1sc(-c2ccc(C(C)(C)C)cc2)nc1C(=O)NCCCN1CCCC1=O | 988
Fc1cccc(COc2ccc(Nc3ncnc4sc(C#C[C@H]5CCCN5)cc34)cc2F)c1 | 871
O=S(=O)(Nc1ccc(CCN2CCC(N3CCCCC3)CC2)cc1)c1ccc2ccccc2c1 | 1010
Cc1ccc(NC(=O)c2cc(S(=O)(=O)NC(C)(C)C)ccc2C)nc1 | 756
CN1CCN(CCCN(Cc2ccc(-c3cccc(CNCc4ccc5c(c4)OCO5)c3)cc2)C(=O)Nc2ccccc2)CC1 | 183
COC(=O)c1ccc(C2OC3(C(=O)c4ccccc4C3=O)C(OC)=C2Cl)cc1C(C)=O (stereo not given) | 546
O=C(NCc1ccccn1)C(c1cc2ccccc2o1)N1CCN(C(c2ccccc2)c2ccccc2)CC1 (stereo not given) | 856
Cc1ccnc(NC(c2cccc(OCc3ccccc3)c2)c2ccc3cccnc3c2O)c1 (stereo not given) | 864
COc1ccc2ncc(Cl)c(CCN3C[C@H](CNCc4ccc5c(n4)NC(=O)CS5)[C@H](O)C3)c2n1 | 1000
O=C(Nc1ccc(F)cc1)N1CCCN(c2ccnc3cc(Cl)ccc23)CC1 | 785
CCN1CCC(N2CCC(C(=O)Nc3cccc(-c4cccc(Cl)c4)c3)CC2)CC1 | 1080
O=S(=O)(Nc1cc2c(cc1OCCCN1CCCCC1)CCNCC2)c1ccc(-c2ccc(Cl)cc2)cc1 | 1000
OC(CN1CCN(C2CCCCC2)CC1)Cn1c2ccccc2c2cc(Br)ccc21 (stereo not given) | 857
CC(Cc1ccc(C(=O)Nc2ccc(CC(C)NCCc3cccc(Cl)c3)cc2)cc1)NCCc1ccc(C(F)(F)F)cc1 (stereo not given) | 570
O=S(=O)(c1ccc(OCc2ccc(Cl)cc2)cc1)c1cc2c(cc1O)CCN(C1CCC1)CC2 | 942
COc1cc2nc(Cl)nc(Nc3ccncc3)c2cc1OC | 1210
c1ccc(-c2cc(NCCCCCCCCNc3cc(-c4ccccc4)nc4ccccc34)c3ccccc3n2)cc1 | 395
COc1ccc(OC)c(NC(=O)CSc2nc(-c3ccccc3Cl)ns2)c1 | 835
CS(=O)(=O)N(c1ccccc1)c1cc(C(=O)N[C@@H](Cc2ccccc2)[C@H](O)CNC2CCCCC2)cc(N2CCCC2=O)c1 | 78.1
COc1cc(NC(=O)Nc2ccc([N+](=O)[O-])cc2OC)c(OC)cc1Cl | 1470
CC(C)CC1c2[nH]c3ccccc3c2CCN1C(=O)CCc1ccccc1 (stereo not given) | 965
CCOC(=O)c1c(CN2CCN(C)CC2)n(Cc2ccccc2)c2cc(Br)c(O)cc12 | 595
Cc1cccc2nc(-c3cccc(-c4cccc(C(=O)N5CCCCC5CN5CCC(O)C5)c4)c3)[nH]c12 (stereo not given) | 463

Compound | XC50 [nM]
CC(C)NCc1cc(Nc2ccnc3cc(Cl)ccc23)ccc1O | 25
Cc1ccc(C)c2sc(N(CCCn3ccnc3)C(=O)c3ccco3)nc12 | 874
O=C(NCCCCN1CCC(c2ccc3c(c2OCCCO)CCCC3)CC1)c1ccc(-c2ccc(C(F)(F)F)cc2)cc1 | 718
CCCCCCOc1ccc(C(=O)N(Cc2ccccc2)c2c(-c3ccccc3)nc3cc(C)ccn23)cc1 | 774
Cc1noc(C)c1-c1cccc(CNCc2cccc(-c3ccc(-c4nc5ccccc5[nH]4)cc3)c2)c1 | 228
Cc1cc(N[C@@H](CC(C)C)C(=O)Nc2ccccc2)nc(NCc2ccccc2C)n1 | 777
CCCc1cc(N2CCC(N3CCCC3)CC2)nc(Nc2ccc(Cl)cc2)n1 | 765
CCN(CC)CCCC(C)Nc1c2ccccc2nc2ccc3ccccc3c12 (stereo not given) | 1040
COc1cc(C(=O)NC2CCN(Cc3ccccc3)CC2)ccc1-c1nc2cc(Cl)c(C)cc2[nH]1 | 304
Cc1ccccc1C1CCN(C2CCC(NC(=O)/C=C/c3cc(C(F)(F)F)ccc3F)CC2)CC1 (stereo not given) | 839
COc1ccc(Nc2ccnc3cc4ccccc4cc23)cc1 | 683
CCOC(=O)C1=C(C)NC(C)=C(C(=O)OCC)C1(C(=O)OCc1ccccc1)c1cccc(C(F)(F)F)c1 | 1230
Cc1cc(N(C)C)nc(Nc2ccc(NC(=O)Nc3ccccc3)cc2)n1 | 134
Cc1ccc2c(=O)n(C)c(=O)n(C)c2n1 | 819
Cc1ccc(S(=O)(=O)N2CCN(C(=O)c3cc(-c4cccs4)n[nH]3)CC2)c(C)c1 | 866
Cc1cccc2[nH]cc(C3CCN(CCC4CCN(C(=O)/C=C/c5ccc(Cl)c(Cl)c5)CC4)CC3)c12 | 1220
N#Cc1c(N2CCCCCC2)nc(N)c2c(N)nc3c(c12)CC(=O)N3c1ccc(F)cc1 | 213
OC(c1ccccc1)C1CN(CCC2CC3CCC2C3)CCC1(O)c1ccccc1 (stereo not given) | 346
CC[C@H]1CN2CCc3c([nH]c4ccccc34)[C@@H]2C[C@@H]1CC1c2cc(OC)c(OC)cc2CCN1C (stereo not given in full) | 1090
COc1cc(Nc2nccc(N3CCC(NC(=O)C(C)c4ccc(Cl)cc4)C3)n2)cc(OC)c1OC (stereo not given) | 757
COc1cc(NCC(CN)Cc2ccc3c(c2)OCO3)nc2ccccc12 (stereo not given) | 820
Cc1ccc(NC(=O)c2ccc(NCCCN(C)Cc3ccccc3)c([N+](=O)[O-])c2)cc1F | 701
O=C(/C=C/c1ccc(Cl)c(Cl)c1)NCCCCCN1CCC(NC(=S)Nc2ccc(Cl)cc2)CC1 | 443
